Like-named read-outs stand apart in the source and are kept apart here.

The term inhibition denotes the relative decrease from the control value, in per cent.

What all share (assay type): cell-based
Experiment [1] relates to cytosolic and nuclear ERK. Description: FRET assays of cytosolic and nuclear ERK in HEK293 cells. The conditions noted are these: UBO-QIC 100 nM, G66983 1 μM; for trypsin-stimulated activation of cytosolic ERK: AG1478 1 μM. How it is done:
Trypsin-induced ERK signaling mediated by endosomal PAR2 signaling was investigated in HEK293 cells expressing Flag-PAR2-HA11 and FRET biosensors for cytosolic and nuclear ERK (CytoEKAR, NucEKAR), plasma membrane and cytosolic PKC (pmCKAR, CytoCKAR), and plasma membrane and cytosolic cAMP (pmEpac, CytoEpac). […] I-343 (10 μM) but not SCH530348 (100 nM) inhibited trypsin activation of cytosolic and nuclear ERK (FIG. 5G). PS2 and DynK44E inhibited trypsin-stimulated activation of cytosolic and nuclear ERK when compared to PS2 inact and DynWT controls (FIG. 5H, 5I, 17G-J). AG1478 (1 μM), an inhibitor of EGF receptor tyrosine kinase (Levitzki, A. & Gazit, A. Science 1995, 267(5205): 1782-1788), UBO-QIC (100 nM), which inhibits Gαq and certain Gβγ signals ([…]), and G66983 (1 μM), which inhibits all isoforms of PKC (Gschwendt, M, et al., FEBS Lett 1996, 392(2): 77-80), suppressed trypsin-stimulated activation of cytosolic ERK (FIGS. 5J and 17K).
HEK293 cells were cultured in DMEM supplemented with 10% (v/v) FBS (5% CO2, 37° C.). When necessary serum restriction was achieved by replacing culture medium with DMEM containing 0.5% FBS overnight. Cells were transiently transfected using polyethylenimine (PEI) (1:6 DNA:PEI).
HEK293 cells were transiently transfected in 10 cm dishes (˜50% confluency) with Flag-PAR2-HA (2.5 μg) and FRET biosensors CytoEKAR or NucEKAR (2.5 μg) (Jensen, D. D. et al., Sci Transl Med. 2017, 9(392), eaal3447; Thomsen, A. R. B., et al., Cell 2016, 166(4): 907-919). In experiments examining the role of dynamin, cells were transfected with FLAG-PAR2-HA (1.25 μg), FRET biosensor (1.25 μg) and either DynWT-HA, DynK44E-HA or pcDNA3.1 (2.5 μg). At 24 h after transfection, cells were seeded on ViewPlate-96 well plates (PerkinElmer). FRET was assessed 72 h post-transfection, following overnight serum restriction. Cells were equilibrated in HBSS-HEPES (30 min, 37° C.). FRET was measured using a PHERAstar FSX Microplate Reader (BMG LabTech). For CFP/YFP emission ratio analysis, cells were sequentially excited using a CFP filter (425/10 nm) with emission measured using YFP (550/50 nm) and CFP (490/20 nm) filters. FRET was measured before and after stimulation with trypsin (10 nM), NE (100 nM), CS (100 nM), phorbol 12,13-dibutyrate, PDBu (positive control, 1 μM), or vehicle. FRET ratios (donor/acceptor intensity for EKAR, or acceptor/donor intensity for CKAR and Epac) were calculated and corrected to baseline and vehicle treatments to determine ligand-induced FRET (ΔFRET). Treatment effects were determined by comparison of area under the curve values. Signalling inhibitors were dissolved in HBSS-HEPES. PS2 and PS2 inact were dissolved in HBSS-HEPES+1% DMSO. Cells were incubated with UBO-QIC (100 nM), AG1478 (1 μM), G66983 (1 μM), PS2 or PS2 inact (30 μM) or vehicle (30 min preincubation, inclusion throughout).

In experiment [2] the target is T1, human (h) PAR2 (Homo sapiens, UniProt P55085).
T1 construct: expressed in transfected cells; host or cells: KNRK cells (KNRK-hPAR2)
T1 sequence (P55085 26-397): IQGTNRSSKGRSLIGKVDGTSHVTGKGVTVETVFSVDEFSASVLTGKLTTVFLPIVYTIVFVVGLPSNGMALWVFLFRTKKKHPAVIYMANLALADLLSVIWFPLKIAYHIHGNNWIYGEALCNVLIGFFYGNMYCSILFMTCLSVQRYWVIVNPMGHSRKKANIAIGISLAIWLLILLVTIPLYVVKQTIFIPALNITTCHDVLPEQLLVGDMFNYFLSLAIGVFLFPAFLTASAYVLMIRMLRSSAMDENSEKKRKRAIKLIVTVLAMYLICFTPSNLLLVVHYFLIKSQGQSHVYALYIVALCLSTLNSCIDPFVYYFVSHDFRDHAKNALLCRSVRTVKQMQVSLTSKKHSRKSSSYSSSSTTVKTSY
Description: IP1 accumulation assay in KNRK-hPAR2 cells. Particulars: for inhibition at 30 µM: 100 nM 2F, 30 μM of antagonist, read-out: KNRK-PAR2 100 nM 2F: ND (inhibition of 2F at 30 μM of antagonist). How it is done:
(§1) KNRK-hPAR2, KNRK or HT-29 cells were seeded at a density of 50×10^3 cells/well in a clear poly-d-lysine coated 96 well tissue culture plate. Following 24 h incubation at 37° C. and 5% CO2, media was removed and replaced with 80 μl IP1 stimulation buffer (10 mM HEPES, 1 mM CaCl2, 0.5 mM MgCl2, 4.2 mM KCl, 146 mM NaCl, 5.5 mM glucose, 50 mM LiCl). Following stimulation buffer addition, the wells received 10 μl of 10× antagonists or DMSO vehicle. All plates were further incubated at 37° C., 5% CO2 for 30 min. 10 μl of 2F or ATP was added to the plates and further incubated for 40 min. Following incubation, stimulation buffer was quickly removed by aspiration and replaced with 25 μl lysis buffer (IP-One HTRF® assay kit, Cisbio). Following incubation of the lysates at 37° C., 5% CO2 for 10′, 10 μl lysate was transferred to a 384-well OptiPlate (PerkinElmer) and detected using the IP-One HTRF® assay kit (Cisbio).
(§2) Compounds of the invention (added at 10×concentrations in a 10 μL volume) were incubated for 30 min prior to the addition of 10 μM ATP or 100 nM or 300 nM PAR2 agonist (2F; EC80, added at 10×concentrations in a 10 μL volume) and then further incubated for 40 min. After lysis, the inositol phosphate 1 was quantified with IP-One HTRF® assay kit, Cisbio. The data was analysed with Prism, GraphPad to calculate the IC50 values, shown below in Table 1.
(§3) Inhibition of PAR2 signaling with known PAR2 inhibitor I-343 (FIG. 14A) was investigated in HT-29 cells and HEK293 cells, which express endogenous PAR2, and in KNRK cells expressing human (h) PAR2. Accumulation of inositol phosphate-1 (IP1) was measured in response to the PAR2-selective agonist 2-Furoyl-LIGRLO-NH2 (2F), an analogue of the trypsin-exposed tethered ligand, or trypsin.
(§4) KNRK-hPAR2, KNRK, HEK293, or HT-29 cells were seeded at a density of 50×10^3 cells/well onto clear 96-well plates (PerkinElmer). After 24 h of culture, medium was replaced with IP1 stimulation buffer (10 mM HEPES, 1 mM CaCl2, 0.5 mM MgCl2, 4.2 mM KCl, 146 mM NaCl, 5.5 mM glucose, 50 mM LiCl; 37° C., 5% CO2.). Cells were pre-incubated with the antagonist or vehicle for 30 min prior to the addition of agonist. Cells were then further incubated for 40 min. Stimulation buffer was […]

Experiment [3] addresses T2, PAR2 (Homo sapiens, UniProt P55085).
T2 construct: HT-29 cells and HEK293 cells, which express endogenous PAR2; endogenous in cells; host or cells: HT-29
T2 sequence (P55085 26-397): T1 sequence (P55085 26-397)
Description: IP1 accumulation assay in HT-29 cells (endogenous PAR2). The conditions noted are these: 2F (300 nM)-induced IP1, HT-29 cells. How it is done:
as §1, §2, §3, §4

[4] abbreviates: read-out: HT-29 300 nM 2F (IC50).
Setting [5] is: read-out: HT-29 300 nM 2F pIC50 ± SEM (converted).

For `COc1ccc2c(c1)c(C1=C(c3c[nH]c4ccccc34)C(=O)NC1=O)cn2CCCN(C)C` [Compound G66983], in experiment [1], the “trypsin-stimulated activation of cytosolic ERK” value was “suppressed” and the “trypsin-stimulated activation of nuclear ERK” value is recorded as “inhibited”.
As to `COc1cc2ncnc(Nc3cccc(Cl)c3)c2cc1OC` [AG1478], in experiment [1], the “trypsin-stimulated activation of cytosolic ERK” value was “suppressed”.
Regarding `CC(C)CCC[C@@H](C)[C@H]1CC[C@H]2[C@@H]3CCC4CC(OC(=O)C[C@H](NC(=O)CCOCCOCCOCCOCCOCCOCCNC(=O)[C@H](CCCNC(=N)N)NC(=O)CCOCCOCCOCCOCCOCCOCCNC(=O)Cn5cc(C(=O)N6CCN(C(=O)c7cn8nc(-c9ccc(F)cc9)cc(C(C)(C)C)c8n7)C(C)(C)C6)nn5)C(N)=O)CC[C@]4(C)[C@H]3CC[C@]12C` (some centres unmarked) [Compound 14], in experiment [2], the inhibition at 30 µM is below 50%. Besides, the IC50 in experiment [3] (setting [4]) was determined as 1550 nM.
Turning to `CC(C)(C)c1cc(-c2ccc(F)cc2)nn2cc(C(=O)N3CCN(C(=O)c4cn(CC(=O)NCCOCCOCCOCCOCCOCCO)nn4)CC3(C)C)nc12` [Compound 6, 2-(4-(4-(8-(tert-butyl)-6-(4-fluorophenyl)imidazo[1,2-b]pyridazine-2-carbonyl)-3,3-dimethylpiperazine-1-carbonyl)-1H-1,2,3-triazol-1-yl)-N-(17-hydroxy-3,6,9,12,15-pentaoxaheptadecyl)acetamide], the inhibition at 30 µM in experiment [2] was below 50%. The IC50 in experiment [3] (setting [4]) was 971 nM.
Regarding `CCCCCCCCCCCCCCCCNC(=O)C[C@H](NC(=O)CCOCCOCCOCCOCCOCCOCCOCCOCCOCCOCCOCCOCCNC(=O)Cn1cc(C(=O)N2CCN(C(=O)c3cn4nc(-c5ccc(F)cc5)cc(C(C)(C)C)c4n3)C(C)(C)C2)nn1)C(N)=O` [Compound 15, (S)-3-(1-(4-(4-(8-(tert-butyl)-6-(4-fluorophenyl)imidazo[1,2-b]pyridazine-2-carbonyl)-3,3-dimethylpiperazine-1-carbonyl)-1H-1,2,3-triazol-1-yl)-2-oxo-6,9,12,15,18,21,24,27,30,33,36,39-dodecaoxa-3-azadotetracontan-42-amido)-N1-hexadecylsuccinamide], in experiment [2], the inhibition at 30 µM was below 50%. For the same compound, the IC50 in experiment [3] (setting [5]) was 47.2 nM.
In the case of `COC(=O)C12CCC(C(=O)N3CCN(C(=O)c4cn5nc(-c6ccc(F)cc6)cc(C(C)(C)C)c5n4)C(C)(C)C3)(CC1)CC2` [Compound 8, methyl 4-(4-(8-(tert-butyl)-6-(4-fluorophenyl)imidazo[1,2-b]pyridazine-2-carbonyl)-3,3-dimethylpiperazine-1-carbonyl)bicyclo[2.2.2]octane-1-carboxylate], the IC50 is above 10000 nM in experiment [2] (2F (100 nM)-induced IP1, KNRK-hPAR2 cells, read-out: KNRK-PAR2 100 nM 2F pIC50 ± SEM (converted)) and 42.7 nM in experiment [3] (setting [5]).
As for `CC(C)(C)c1cc(-c2ccc(F)cc2)nn2cc(C(=O)N3CCN(C(=O)CCS(=O)(=O)O)CC3(C)C)nc12` [Compound 1, 3-(4-(8-(tert-butyl)-6-(4-fluorophenyl)imidazo[1,2-b]pyridazine-2-carbonyl)-3,3-dimethylpiperazin-1-yl)-3-oxopropane-1-sulfonic acid], the inhibition at 30 µM in experiment [2] is below 50%. Moreover, in experiment [3] (setting [4]), the IC50 stood at 5900 nM.
The corresponding values for `CC(C)CCC[C@@H](C)[C@H]1CCC2C3CCC4C[C@@H](OC(=O)C[C@H](NC(=O)CCOCCOCCNC(=O)Cn5cc(C(=O)N6CCN(C(=O)c7cn8nc(-c9ccc(F)cc9)cc(C(C)(C)C)c8n7)C(C)(C)C6)nn5)C(N)=O)CC[C@]4(C)C3CC[C@@]21C` (stereo partly drawn) [Compound 9, (3S,10S,13R,17R)-10,13-dimethyl-17-((R)-6-methylheptan-2-yl)hexadecahydro-1H-cyclopenta[a]phenanthren-3-yl (14S)-1-(4-(4-(8-(tert-butyl)-6-(4-fluorophenyl)imidazo[1,2-b]pyridazine-2-carbonyl)-3,3-dimethylpiperazine-1-carbonyl)-1H-1,2,3-triazol-1-yl)-14-carbamoyl-2,12-dioxo-6,9-dioxa-3,13-diazahexadecan-16-oate] are below 50% and 700 nM.
`CC(C)(C)c1cc(-c2ccc(F)cc2)cc2nc(C(=O)N3CCN(C(=O)CCC(=O)NC[C@H](O)[C@@H](O)[C@H](O)[C@H](O)CO)CC3(C)C)oc12` [Compound 4, 4-(4-(7-(tert-butyl)-5-(4-fluorophenyl)benzo[d]oxazole-2-carbonyl)-3,3-dimethylpiperazin-1-yl)-4-oxo-N-((2S,3R,4R,5R)-2,3,4,5,6-pentahydroxyhexyl)butanamide]: in experiment [2], the inhibition at 30 µM is below 50%. Moreover, in experiment [3] (setting [5]), the IC50 is above 10000 nM.

Values taken from patent publication US20200383985A1, “Inhibitors of Protease Activated Receptor-2” (Endosome Therapeutics, Inc., priority 2017, published 2020).
